Test results reported in patent US4699924A, “Skin treatment composition” (priority 1983, dated 1987).
Where a name gives a salt, the structure may show the parent alone. Read-outs that look alike come from different tables or passages of the source.

Legend:
[1] = Cloud point temperature of a 0.025M aqueous solution of polyoxyethylene(8)nonylphenyl ether with 5% by weight additive; type: physicochemical; details: for Effect on the cloud point temperature of nonionic surfactants: screening of non-electrolytes, in words
Experimental: An activity enhancer is accordingly defined as a non-electrolyte which is capable, at a concentration of 5% by weight of increasing the cloud point temperature of a 0.025M aqueous solution of polyoxyethylene(8)nonylphenyl ether by at least 10° C. Preferably the activity enhancer is one which is capable of increasing the cloud point temperature by at least 15° C., most preferably by at least 20° C.
It should be explained that the "cloud point" is a measure of the inverse solubility of a nonionic surfactant with temperature and can be determined by heating a standard clear aqueous solution of the nonionic surfactant until the solution becomes visibly cloudy and then measuring the temperature.
The cloud point temperature can conveniently be determined automatically using the equipment and method described by Baum et al in Mat. Res. Std. 4 26 (1964).
Examples of suitable compounds functioning as activity enhancers, together with the respective elevated cloud point temperature obtained in each case when using the standard test defined hereinbefore are listed below in Table 1.

[2] = test system: guinea pig foot pad stratum corneum; experiment: Increase in extensibility of guinea pig foot pad stratum corneum; design: Increase in stratum corneum extensibility: unit not given here; details: 0.2 M 2-hydroxyoctanoic acid + additive at 5% w/w; 3 hours at 20° C.; relative humidity 65%
Experimental: The ability of an additive to enhance the delivery to skin of 2-hydroxyoctanoic acid was measured in terms of the increase in extensibility of guinea pig foot pad stratum corneum following contact with each solution.
In this experiment, pieces of guinea pig foot pad stratum corneum, equilibrated at a relative humidity of 65%, were immersed in each solution for 3 hours at 20° C., and then removed, blotted dry and re-equilibrated at the same relative humidity. The extensibility of each piece of guinea pig foot pad stratum corneum was measured before and after this treatment in an extensiometer according to the method described in European Pat. No. 7785.

[3] = Table 1, activity enhancer 5% by weight, 0.025 M polyoxyethylene(8)nonylphenyl ether
[4] = Table 1, activity enhancer 5% by weight, control 33.5 °C., in °C
[5] = table of extensibility results, additive at 5% w/w, in °C
[6] = Table 2, compound which is not an activity enhancer, 5% by weight
[7] = Table 2, compound which is not an activity enhancer, 5% by weight, control 33.5 °C.

OCCCCO [Butan-1,4-diol]
Cloud point temperature [1, 3]: 45.0 °C
Elevation of cloud point temperature [1, 4]: 11.5

CCN(CC)CCOC(=O)c1ccc(N)cc1 [procaine, reference compound]
Log partition coefficient (octanol/water): 1.87

O=C1CCCN1 [2-pyrrolidone]
Elevation of cloud point temperature [1, 5]: 15.5
Increase in stratum corneum extensibility [2]: 28.0

CC1(C)S[C@@H]2[C@H](NC(=O)Cc3ccccc3)C(=O)N2[C@H]1C(=O)O [benzyl pencillin, reference compound]
Log partition coefficient (octanol/water): 1.83

O=C1C[C@@H]2OCC=C3CN4CC[C@]56c7ccccc7N1[C@H]5[C@H]2[C@H]3C[C@H]46 [strychnine]
Log partition coefficient (octanol/water): 1.93

OC[C@@H](O)[C@@H](O)[C@H](O)[C@@H](O)CO [sorbitol]
Effect on the cloud point temperature of nonionic surfactants [1]: reduce the cloud point temperature

Cc1ccccc1S(N)(=O)=O [o-methylbenzene sulphonamide]
Log partition coefficient (octanol/water): 0.84

CC(N)Cc1ccccc1 (centres unmarked) [amphetamine, reference compound]
Log partition coefficient (octanol/water at 20° C.): 1.63

CCOC(=O)c1cccnc1 [ethyl nicotinate]
Log partition coefficient (octanol/water at 20° C.): 1.32

Oc1ccc(O)cc1 [p-dihyroxybenzene]
Log partition coefficient (octanol/water): 0.59

OC1CCCCC1 [Cyclohexanol]
Cloud point temperature [1, 6]: 11.0 °C
Elevation of cloud point temperature [1, 7]: -22.5 °C
Effect on the cloud point temperature of nonionic surfactants [1]: reduce the cloud point temperature

CC(C)(C)O [2-methyl propan-2-ol]
Cloud point temperature [1, 3]: 55.0 °C
Elevation of cloud point temperature [1, 4]: 21.5

CCOCCOCCO [POE(2) ethyl ether, polyoxyethylene(2) ethyl ether]
Cloud point temperature [1, 3]: 46.0 °C
Elevation of cloud point temperature [1, 4]: 12.5

CC[C@H]1OC(=O)[C@H](C)[C@@H](O[C@H]2C[C@@](C)(OC)[C@@H](O)[C@H](C)O2)[C@H](C)[C@@H](O[C@@H]2O[C@H](C)C[C@H](N(C)C)[C@H]2O)[C@](C)(O)C[C@@H](C)C(=O)[C@H](C)[C@@H](O)[C@]1(C)O [erythromycin, reference compound]
Log partition coefficient (octanol/water): 1.26

CC(O)COCC(C)O (centres unmarked) [Di(2-hydroxypropyl) ether]
Cloud point temperature [1, 3]: 44.8 °C
Elevation of cloud point temperature [1, 4]: 11.3
Elevation of cloud point temperature [1, 5]: 11.3
Increase in stratum corneum extensibility [2]: 21.6

COCCOCCO [POE(2) methyl ether]
Cloud point temperature [1, 3]: 43.5 °C
Elevation of cloud point temperature [1, 4]: 10.0

O=C(O)c1cccc(O)c1 [m-hydroxybenzoic]
Log partition coefficient (octanol/water): 1.50

CC1(C)SC2C(NC(=O)C(O)c3ccccc3)C(=O)N2C1C(=O)O (stereo not drawn) [α-hydroxy benzyl penicillin]
Log partition coefficient (octanol/water at 20° C.): 1.40

Cc1ccc(S(N)(=O)=O)cc1 [p-methylbenzene sulphonamide]
Log partition coefficient (octanol/water at 20° C.): 0.82

O=C(O)CCCCCCCC(=O)O [azelaic acid, reference compound]
Log partition coefficient (octanol/water): 1.57

CC(C)O [Propan-2-ol]
Cloud point temperature [1, 3]: 56.0 °C
Elevation of cloud point temperature [1, 4]: 22.5

CCCO [Propan-1-ol]
Cloud point temperature [1, 3]: 53.0 °C
Elevation of cloud point temperature [1, 4]: 19.5

CCCCO [Butan-1-ol]
Cloud point temperature [1, 6]: 36.3 °C
Elevation of cloud point temperature [1, 7]: 2.8 °C
Effect on the cloud point temperature of nonionic surfactants [1]: reduce the cloud point temperature
Elevation of cloud point temperature [1, 5]: 2.8
Increase in stratum corneum extensibility [2]: 13.2

O=C(O)c1ccccc1O [salicylic acid, reference compound]
Log partition coefficient (octanol/water at 20° C.): 2.26

CC(O)CO (centres unmarked) [Propan-1,2-diol]
Cloud point temperature [1, 6]: 39.0 °C
Elevation of cloud point temperature [1, 7]: 5.5 °C
Elevation of cloud point temperature [1, 5]: 5.5
Increase in stratum corneum extensibility [2]: 12.6

C[S+](C)[O-] [Dimethyl sulphoxide]
Cloud point temperature [1, 6]: 33.9 °C
Elevation of cloud point temperature [1, 7]: 0.4 °C
Elevation of cloud point temperature [1, 5]: -0.5
Increase in stratum corneum extensibility [2]: 5

CC(O)CCO (centres unmarked) [Butan-1,3-diol]
Cloud point temperature [1, 6]: 41.5 °C
Elevation of cloud point temperature [1, 7]: 8.0 °C

CC(=O)Nc1ccccc1C(=O)O [N--acetyl O--aminobenzoic acid]
Log partition coefficient (octanol/water at 20° C.): 1.88

O=C1NS(=O)(=O)c2ccccc21 [saccharin]
Log partition coefficient (octanol/water): 0.91

C1COCCO1 [1,4 Dioxane]
Cloud point temperature [1, 3]: 44.0 °C
Elevation of cloud point temperature [1, 4]: 10.5

NS(=O)(=O)c1ccc([N+](=O)[O-])cc1 [p-nitrobenzene sulphonamide]
Log partition coefficient (octanol/water at 20° C.): 0.64

Nc1ccc(C(=O)O)cc1 [p-aminobenzoic acid, reference compound]
Log partition coefficient (octanol/water): 0.68

C1COCCN1 [Morpholine]
Cloud point temperature [1, 6]: 40.0 °C
Elevation of cloud point temperature [1, 7]: 6.5 °C

c1ccc2[nH]cnc2c1 [benzimidazole]
Log partition coefficient (octanol/water at 20° C.): 1.34

OCC(O)CO [Propan-1,2,3-triol]
Cloud point temperature [1, 6]: 32.2 °C
Elevation of cloud point temperature [1, 7]: -1.3 °C
Effect on the cloud point temperature of nonionic surfactants [1]: reduce the cloud point temperature
Elevation of cloud point temperature [1, 5]: -1.3
Increase in stratum corneum extensibility [2]: 5

Oc1ccccc1O [o-dihydroxybenzene]
Log partition coefficient (octanol/water at 20° C.): 0.80

CC(O)CC(C)O (centres unmarked) [Pentan-2,4-diol]
Cloud point temperature [1, 3]: 48.0 °C
Elevation of cloud point temperature [1, 4]: 14.5
Elevation of cloud point temperature [1, 5]: 14.5
Increase in stratum corneum extensibility [2]: 17.0

CCC1(c2ccccc2)C(=O)NC(=O)NC1=O [5-ethyl-5-phenyl barbituric acid, reference compound]
Log partition coefficient (octanol/water at 20° C.): 1.42

CC(O)CCC(C)O (centres unmarked) [Hexan-2,5-diol]
Cloud point temperature [1, 3]: 52.0 °C
Elevation of cloud point temperature [1, 4]: 18.5
Elevation of cloud point temperature [1, 5]: 18.5
Increase in stratum corneum extensibility [2]: 37.0

CCOC(=O)CC(O)(CC(=O)OCC)C(=O)OCC [triethyl citrate]
Log partition coefficient (octanol/water at 20° C.): 0.67

Cc1cccc(S(N)(=O)=O)c1 [m-methylbenzene sulphonamide]
Log partition coefficient (octanol/water at 20° C.): 0.85

C1CCOC1 [Tetrahydrofuran]
Cloud point temperature [1, 3]: 45.0 °C
Elevation of cloud point temperature [1, 4]: 11.5

CCOC(=O)C(C)O (centres unmarked) [Ethyl-2hydroxypropanoate]
Cloud point temperature [1, 3]: 52.1 °C
Elevation of cloud point temperature [1, 4]: 18.6

OCCO [Ethan-1,2-diol]
Cloud point temperature [1, 6]: 33.0 °C
Elevation of cloud point temperature [1, 7]: -0.5 °C
Elevation of cloud point temperature [1, 5]: -0.5
Increase in stratum corneum extensibility [2]: 5

CC(C)=O [Acetone]
Cloud point temperature [1, 3]: 46.3 °C
Elevation of cloud point temperature [1, 4]: 12.8

NS(=O)(=O)c1cccc([N+](=O)[O-])c1 [m-nitrobezene sulphonamide]
Log partition coefficient (octanol/water at 20° C.): 0.55

NC(=O)c1cccnc1 [niacinamide, reference compound]
Log partition coefficient (octanol/water at 20° C.): 1.37

4-methyl-6-(2,4,6-trimethyl-pentyl)-2-(1H)--pyridone
Log partition coefficient (octanol/water): 1.28

CC(C)CO [2-methyl propan-1-ol]
Cloud point temperature [1, 6]: 41.0 °C
Elevation of cloud point temperature [1, 7]: 7.5 °C

CCC1OC(=O)C(C)C(OC2CC(C)(OC)C(O)C(C)O2)C(C)C(OC2OC(C)C(O)C(N(C)C)C2O)C(C)(O)CC(C)C(=O)C(C)C(O)C1(C)O (centres unmarked) [4'-hydroxyerythromycin]
Log partition coefficient (octanol/water): 1.44
